The text below walks through data of patent publication US20250144168A1, “LANTHIPEPTIDES AND METHODS OF USE” (priority 2022, published 2025).

Square brackets hold non-standard residues; d marks the D form. Ends that are not written are not given here. pT = C[C@@H](OP(=O)(O)O)[C@H](N)C(=O)O

In experiment [1] the test system is isolated human neutrophils. The experiment in a line: Neutrophil chemotaxis assay (Zigmond chamber). It is filed as cell-based. Here is the method:
A suspension of 1×10^6 human PMNs in 100 μL HBSS containing 1% gelatin (Sigma-Aldrich) was placed on a 5% bovine serum albumin-coated 22×40 mm glass coverslip and incubated for 10 minutes at 37° C. Coverslips were then inverted onto a Zigmond chamber. Hundred microliters of HBSS and 100 μL HBSS containing N-formyl-methionyl-leucyl-phenylalanine (fMLP) 10^-6M or different concentrations of salivaricin 10 were added to the left and right chambers, respectively. PMN migration across the chamber was recorded with time-lapse of video microscopy at 20 second intervals for a period of 10 minutes using a Zeiss Motorized AxioVert (ZEISS). Captured images were analyzed using cell-tracking software (Retrac, v2.1.0.).

The test system of the next experiment is M. luteus. The experiment in a line: Zone of inhibition of the isolated peptides (spot-on-lawn). To be noted: lantibiotic-sensitive target M. luteus. It is filed as cell-based. How it is done: Pure and homogenized SALI-10 colonies were selected to inoculate 10 ml of TSB supplemented with 2% yeast extract. The fermentation was carried out overnight at 37° C. with 5% CO2 for 18 h. The produced culture was used to inoculate 20 Petri dishes (100 mm), each containing 20 mL of TSA supplemented with 2% yeast extract and 0.2% CaCO3 and incubated as mentioned above (step 1). The agar cultures were then cut into small pieces and put into 250 mL centrifugation bottles. The bottles were incubated at −80° C. for 18 h and thawed immediately in a 70° C. water bath to produce liquid material. The liquid material was then collected by centrifugation, and the resultant supernatant was extracted with one volume of chloroform. The white precipitate from chloroform extraction was dried and resuspended in 2 ml of 35% acetonitrile in water (v/v). Centrifugation was performed to remove insoluble material to produce a clear peptide extract (we call it material A). The process was repeated with induction procedure by adding 50 μl of material A to 50 ml of TSB supplemented with yeast extract and inoculating this media with SALI-10 strain by repeating step 1 and generating 300 induced agar cultures instead of 20. The induced and chloroform extracted peptide was dried as in step 1 and resuspended in 20 ml of 35% ACN in water (v/v) supplemented with 0.1% TFA. The peptides preparation was processed via solid-phase extraction using C18 Sep-Pak® column (Waters, USA) prewashed with methanol and water. After loading the peptides sample, the column was washed with 10 mL of increasing methanol concentrations (10%, 30%, 50%, 70%). Active peptides were eluted with 95% methanol supplemented with 0.1% TFA. The peptides were finally purified using HPLC and C18-Reversed Phase chromatography as mentioned previously. Eluted fractions (1 ml per minute) were tested for antimicrobial activity against the sensitive strain M. luteus ATCC10240 using the spot-on-lawn method.

Experiment [2] has as its system human whole blood neutrophils and monocytes. The experiment in a line: Whole blood phagocytosis (pHrodo) and CD marker flow cytometry. It is filed as cell-based. The settings on record: N-terminal analogues, unlike full-length salivaricin 10. An excerpt:
Neutrophils and monocytes display different activation states characterized by expression levels of cell surface CD marker in the oral cavity depending on the bacteria that they are interacting with. In health, neutrophils in the oral cavity are in a parainflammatory state, and with dysbiosis neutrophil phenotypes change towards a proinflammatory state. To determine if salivaricin 10 can prime neutrophils to augment pathogen elimination through phagocytosis, the surface expression of specific activation CD markers was assessed on human and murine neutrophils stimulated either with pHrodo (pH-sensitive, heat killed E. coli) alone or with salivaricin 10 and pHrodo. […]
SONY SA3800 flow cytometer was used to acquire the data. […] To validate the gating strategy and antibody labeling FMO (fluorescence minus one) controls were used. […]
Data were analyzed by FlowJo software (v10.8; Tree Star). The mean fluorescence intensities (MFIs) for each CD marker were measured. Significant differences (P<0.05) were determined using GraphPad Prism 9 (GraphPad Software, Inc.). for the in-vitro human blood and mouse bone marrow assay paired Student's t-test (n=3) was used for the statistical analysis. […]

Experiment [3] concerns CXCL10 and TGM2 gene expression in M1 macrophages. As to the kind of experiment: Macrophage gene expression assay (CXCL10, TGM2). It is filed as cell-based. The settings on record: 40 μg/mL.
Experiment [4] concerns saliva-derived multispecies biofilms. As to the kind of experiment: Preformed saliva-derived multispecies biofilm, 16S rRNA gene sequencing. It is filed as cell-based, human saliva bacteria. The source says: 13. 16S rRNA Gene Sequencing […] 14. […] The UNOISE pipeline, available through […]11.0.667 and […]2.10.4, was used for sequence analysis. […] 5, a -[…] […] 1.0.
For experiment [5] the test system is unchanged. As to the kind of experiment: Preformed saliva-derived multispecies biofilm, Live/Dead confocal microscopy. It is filed as cell-based, human saliva bacteria. To be noted: salivaricin 10 at 25 and 50 μg·ml^−1; nisin A at 50 μg·ml^−1; 20 min. How it is done:
Biofilms were formed ex-vivo using cell-free saliva as a medium and total salivary cell as inoculum (from healthy subjects). Twenty-four hours pre-formed multispecies biofilms grown anaerobically were treated with either nisin A (50 μg·ml^−1) or two concentrations of salivaricin 10 (25 and 50 μg·ml^−1) for a time exposure of 20 min. […] Salivaricin 10 penetrated saliva-derived multispecies biofilms and effectively killed the bacterial cells within (labeled with PI, lighter gray). No such effect was noticed with untreated (PBS) biofilms controls where the viable cells labeled mainly with Syto9, black. the ratio of live to dead cells decreased by a factor of 6 times compared to PBS treated conditions. […] This dose-dependent reduction in the oral biofilm thickness was reported previously for nisin A [27].
12. Antimicrobial Activity Against Preformed Biofilms (Saliva-Derived De Novo Model)
Saliva-derived biofilms were established in 24 well glass bottom sensoplates (Greiner Bio-One, Monroe, NC, USA) as mentioned previously. […] The mean Intensity of pixels for viable signals (Syto-9; live) and (PI; dead) were measured within biofilm areas of each image with the slices containing the highest respective signal intensity using custom Fiji (ImageJ). […] All quantifications and statistical calculations are based on 10-15 images and 5-10 stacks for each repeat (three repeats). […]

Take `CSCC[C@H](NC=O)C(=O)N[C@@H](CC(C)C)C(=O)N[C@@H](Cc1ccccc1)C(=O)O` [fMLP, N-formyl-methionyl-leucyl-phenylalanine, reference compound]: the neutrophil migration speed in experiment [1] (control peptide) is on record as approximately 11 μm/minute.

In the case of “GWFTAVQLTLAGRCGRWFTGSFECTTNNVKCG (cysteine pairing not given here; also: lanthionine modifications; listed as Streptococcus salivarius) [SrnA1, lanthipeptide of salivaricin 10, phenylalanine at position 22]”, the “antimicrobial activity (zone of inhibition) of the isolated peptide” value in the experiment with M. luteus was “reduced”.

On to “GWFTAVQLTLAGRCGRWFTGSYECTTNNVKCG (cysteine pairing not given here; also: lanthionine modifications; listed as Streptococcus salivarius) [SrnA2, major lanthipeptide of salivaricin 10, tyrosine at position 22]”, for which, in the experiment on M. luteus, the “antimicrobial activity (zone of inhibition) of the isolated peptide” value is “more extensive zone of inhibition”.

As to “GWSTAVRLTVQGRCGWWFTHSYECTSPNVRCG (cysteine pairing not given here; also: lanthionine modifications; listed as Streptococcus salivarius) [SrnA4]”, in the experiment with M. luteus, the “antimicrobial activity (zone of inhibition) of the isolated peptide” value is reported as “Reduced antimicrobial activity”.

With “NH2-GWFTAVQL-COOH (H-GWF[pT]AVQL-OH; SMILES CC(C)C[C@H](NC(=O)[C@H](CCC(N)=O)NC(=O)[C@@H](NC(=O)[C@H](C)NC(=O)[C@@H](NC(=O)[C@H](Cc1ccccc1)NC(=O)[C@H](Cc1c[nH]c2ccccc12)NC(=O)CN)[C@@H](C)OP(=O)(O)O)C(C)C)C(=O)O; listed as Streptococcus salivarius) [p(1-8) Sali10, chemically synthesized eight N-terminal unbridged residues of SrnA1 and SrnA2 with pThr4]”, the “effects on the neutrophils' CD marker expression” value in experiment [2] is listed as “Neither p (1-8) Sali10 (SEQ ID NO: 16) nor np (1-8) Sali10 showed effects”. In addition, in experiment [3], the “gene expression of CXCL10 (M1 macrophage biomarker)” value is reported as “downregulated” and the “gene expression of TGM2 (M2 macrophage biomarker) compared to M1 control cells” value is on record as “upregulated”. Besides, the “neutrophil chemotaxis of the N-terminal tail analogues” value in experiment [1] (40 μg/mL, compared with full-length salivaricin 10) is on record as “very similar activity to the full-length salivaricin 10”.

Regarding nisin A, the “S. gordonii, S. parasanguinis levels in the biofilm” value in experiment [4] is “strongly inhibited”. Moreover, the “commensal species of the genera Veillonella, Streptococcus and Haemophilus in the biofilm” value in experiment [4] (salivaricin 10 at 25 μg and 50 μg) is “disrupted the indigenous oral biofilm, including beneficial commensals”. For the same compound, the “damage to biofilm architecture (confocal images)” value in experiment [5] was “significant and critical damage to the biofilm architecture”.
